9 molecules from patent US10988524B2, “Modified relaxin B chain peptides and their therapeutic use” (priority 2018, dated 2021) can be followed below.

Non-standard residues stand in square brackets, D forms with d. Residues, ends and D or L forms follow the SMILES beside them. 1Nal = N[C@@H](Cc1cccc2ccccc12)C(=O)O; αMeS = C[C@](N)(CO)C(=O)O; Nle = CCCC[C@H](N)C(=O)O; Aib = CC(C)(N)C(=O)O

The first experiment addresses T1, RXFP1 (Homo sapiens, UniProt Q9HBX9).
T1 sequence (Q9HBX9 1-757): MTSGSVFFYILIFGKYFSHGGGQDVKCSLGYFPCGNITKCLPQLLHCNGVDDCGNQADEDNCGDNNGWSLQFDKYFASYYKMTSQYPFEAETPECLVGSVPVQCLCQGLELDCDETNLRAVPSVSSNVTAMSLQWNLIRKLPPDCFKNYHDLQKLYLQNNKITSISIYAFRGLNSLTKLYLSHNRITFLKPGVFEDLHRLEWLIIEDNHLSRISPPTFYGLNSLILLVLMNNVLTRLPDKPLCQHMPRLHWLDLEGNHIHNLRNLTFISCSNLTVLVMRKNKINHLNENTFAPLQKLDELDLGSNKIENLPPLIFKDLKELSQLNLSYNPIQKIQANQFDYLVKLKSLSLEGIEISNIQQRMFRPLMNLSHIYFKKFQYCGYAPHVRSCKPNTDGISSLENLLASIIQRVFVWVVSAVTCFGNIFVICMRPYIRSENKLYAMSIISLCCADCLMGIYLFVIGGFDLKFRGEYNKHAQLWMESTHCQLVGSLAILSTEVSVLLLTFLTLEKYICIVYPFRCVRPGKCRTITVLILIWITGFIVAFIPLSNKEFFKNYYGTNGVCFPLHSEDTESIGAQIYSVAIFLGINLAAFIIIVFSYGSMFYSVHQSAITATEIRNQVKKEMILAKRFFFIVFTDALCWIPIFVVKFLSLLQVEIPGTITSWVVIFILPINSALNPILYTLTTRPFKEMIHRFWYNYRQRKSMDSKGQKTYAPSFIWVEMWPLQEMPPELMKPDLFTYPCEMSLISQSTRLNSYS
In words: OVCAR5 cAMP assay (RXFP1 agonist activity, HTRF). As to conditions: OVCAR-5, read-out: cAMP assay in OVCAR 5 cells Emax, maximal intracellular cAMP relative to H2-relaxin in the same test occasion. (Changes in cAMP serve as a functional read-out for many G protein-coupled receptors.)
What is called Emax is the maximal effect, on the per cent scale that the assay sets. Take `CCCC[C@H](NC(=O)CNC(=O)[C@H](CCC(=O)O)NC(=O)C(C)(C)NC(=O)C(C)(C)NC(=O)[C@@H](NC(=O)[C@H](C)NC(=O)[C@H](C)NC(=O)[C@H](CCCNC(=N)N)NC(=O)[C@@H](NC(=O)[C@H](CCCCN)NC(=O)[C@H](CCC(=O)O)NC(=O)[C@H](CCCNC(=N)N)NC(=O)CNC(=O)[C@H](CCC(=O)O)NC(=O)[C@H](CC(C)C)NC(=O)[C@H](CCC(=O)O)NC(C)=O)C(C)C)[C@@H](C)CC)C(=O)N[C@@H](CO)C(=O)N[C@H](C(=O)N[C@@H](Cc1c[nH]c2ccccc12)C(=O)N[C@@H](CO)C(=O)NC(C)(C)C(=O)N[C@@H](CCCNC(=N)N)C(=O)N[C@@H](CCCCN)C(=O)N[C@@H](CCCCN)C(N)=O)[C@@H](C)O` [compound 48] (Ac-ELEGREKVRAAI[Aib][Aib]EG[Nle]STWS[Aib]RKK-NH2): the maximal effect (Emax) is 91%.

For `CC[C@H](C)[C@H](NC(=O)[C@H](CCC(N)=O)NC(=O)[C@H](C)NC(=O)[C@H](CCCNC(=N)N)NC(=O)[C@@H](NC(=O)[C@H](CCCCN)NC(=O)[C@H](CCC(=O)O)NC(=O)[C@H](CCCNC(=N)N)NC(=O)CNC(=O)[C@H](CCC(=O)O)NC(=O)[C@H](CC(C)C)NC(C)=O)C(C)C)C(=O)NC(C)(C)C(=O)NC(C)(C)C(=O)N[C@@H](CCC(=O)O)C(=O)NCC(=O)N[C@@H](CCSC)C(=O)N[C@@H](CO)C(=O)N[C@H](C(=O)N[C@@H](Cc1c[nH]c2ccccc12)C(=O)N[C@@H](CO)C(=O)N[C@@H](CCCCN)C(=O)N[C@@H](CCCNC(=N)N)C(=O)N[C@@H](CCCCN)C(=O)N[C@@H](CCCCN)C(N)=O)[C@@H](C)O` [compound 10] (Ac-LEGREKVRAQI[Aib][Aib]EGMSTWSKRKK-NH2), the Emax is 103%.

On to `CCCC[C@H](NC(=O)CNC(=O)[C@H](CCC(=O)O)NC(=O)C(C)(C)NC(=O)C(C)(C)NC(=O)[C@@H](NC(=O)[C@H](CCC(N)=O)NC(=O)[C@H](CCCCNC(C)=O)NC(=O)[C@H](CCCNC(=N)N)NC(=O)[C@@H](NC(=O)[C@H](CCCCN)NC(=O)[C@H](CCC(=O)O)NC(=O)[C@H](CCCNC(=N)N)NC(=O)CNC(=O)[C@H](CCC(=O)O)NC(=O)[C@H](CC(C)C)NC(C)=O)C(C)C)[C@@H](C)CC)C(=O)N[C@@H](CO)C(=O)N[C@H](C(=O)N[C@@H](Cc1c[nH]c2ccccc12)C(=O)N[C@@H](CO)C(=O)NC(C)(C)C(=O)N[C@@H](CCCNC(=N)N)C(=O)N[C@@H](CCCCN)C(=O)N[C@@H](CCCCN)C(N)=O)[C@@H](C)O` [compound 33] (Ac-LEGREKVRK(Ac)QI[Aib][Aib]EG[Nle]STWS[Aib]RKK-NH2), for which the maximum response (Emax) came out at 105%.

Consider `CC[C@H](C)[C@H](NC(=O)[C@H](CCC(N)=O)NC(=O)[C@H](C)NC(=O)[C@H](CCCNC(=N)N)NC(=O)[C@@H](NC(=O)[C@H](CCCCN)NC(=O)[C@H](CCC(=O)O)NC(=O)[C@H](CCCNC(=N)N)NC(=O)CNC(=O)[C@H](CCC(=O)O)NC(=O)[C@H](CC(C)C)NC(C)=O)C(C)C)C(=O)NC(C)(C)C(=O)NC(C)(C)C(=O)N[C@@H](CCC(=O)O)C(=O)NCC(=O)N[C@@H](CCSC)C(=O)N[C@@H](CO)C(=O)N[C@@H](CCCCN)C(=O)N[C@@H](Cc1c[nH]c2ccccc12)C(=O)N[C@@H](CO)C(=O)NC(C)(C)C(=O)N[C@@H](CCCNC(=N)N)C(=O)N[C@@H](CCCCN)C(N)=O` [compound 18] (Ac-LEGREKVRAQI[Aib][Aib]EGMSKWS[Aib]RK-NH2), for which the maximum response (Emax) was 104%.

Regarding `CCCC[C@H](NC(=O)CNC(=O)[C@H](CCC(=O)O)NC(=O)C(C)(C)NC(=O)C(C)(C)NC(=O)[C@@H](NC(=O)[C@H](CCCCNC(C)=O)NC(=O)[C@H](C)NC(=O)[C@H](CCCNC(=N)N)NC(=O)[C@@H](NC(=O)[C@H](CCCCN)NC(=O)[C@H](CCC(=O)O)NC(=O)[C@H](CCCNC(=N)N)NC(=O)CNC(=O)[C@H](CCC(=O)O)NC(=O)[C@H](CC(C)C)NC(C)=O)C(C)C)[C@@H](C)CC)C(=O)N[C@@H](CO)C(=O)N[C@H](C(=O)N[C@@H](Cc1c[nH]c2ccccc12)C(=O)N[C@@H](CO)C(=O)NC(C)(C)C(=O)N[C@@H](CCCNC(=N)N)C(=O)N[C@@H](CCCCN)C(=O)N[C@@H](CCCCN)C(N)=O)[C@@H](C)O` [compound 24] (Ac-LEGREKVRAK(Ac)I[Aib][Aib]EG[Nle]STWS[Aib]RKK-NH2), the Emax stood at 92%.

`CCCC[C@H](NC(=O)CNC(=O)[C@H](CCC(=O)O)NC(=O)C(C)(C)NC(=O)C(C)(C)NC(=O)[C@@H](NC(=O)C(C)(C)NC(=O)[C@H](CCCCNC(C)=O)NC(=O)[C@H](CCCNC(=N)N)NC(=O)[C@@H](NC(=O)[C@H](CCCCN)NC(=O)[C@H](CCC(=O)O)NC(=O)[C@H](CCCNC(=N)N)NC(=O)CNC(=O)[C@H](CCC(=O)O)NC(=O)[C@H](CC(C)C)NC(C)=O)C(C)C)[C@@H](C)CC)C(=O)N[C@@H](CO)C(=O)N[C@H](C(=O)N[C@@H](Cc1c[nH]c2ccccc12)C(=O)N[C@@H](CO)C(=O)NC(C)(C)C(=O)N[C@@H](CCCNC(=N)N)C(=O)N[C@@H](CCCCN)C(=O)N[C@@H](CCCCN)C(N)=O)[C@@H](C)O` [compound 34] (Ac-LEGREKVRK(Ac)[Aib]I[Aib][Aib]EG[Nle]STWS[Aib]RKK-NH2): the Emax was 96%.

As for `CCCC[C@H](NC(=O)CNC(=O)[C@H](CCC(=O)O)NC(=O)C(C)(C)NC(=O)C(C)(C)NC(=O)[C@@H](NC(=O)[C@H](CCCCNC(C)=O)NC(=O)[C@H](C)NC(=O)[C@H](CCCNC(=N)N)NC(=O)[C@@H](NC(=O)[C@H](CCCCN)NC(=O)[C@H](CCC(=O)O)NC(=O)[C@H](CCCNC(=N)N)NC(=O)CNC(=O)[C@H](CCC(=O)O)NC(=O)[C@H](CC(C)C)NC(C)=O)C(C)C)[C@@H](C)CC)C(=O)N[C@@H](CO)C(=O)N[C@H](C(=O)N[C@@H](Cc1c[nH]c2ccccc12)C(=O)N[C@@H](CO)C(=O)NC(C)(C)C(=O)N[C@@H](CCCNC(=N)N)C(=O)N[C@@H](CCCCN)C(N)=O)[C@@H](C)O` [compound 47] (Ac-LEGREKVRAK(Ac)I[Aib][Aib]EG[Nle]STWS[Aib]RK-NH2), the Emax worked out at 94%.

Consider `CC[C@H](C)[C@H](NC(=O)[C@H](CCC(N)=O)NC(=O)[C@H](C)NC(=O)[C@H](CCCNC(=N)N)NC(=O)[C@@H](NC(=O)[C@H](CCCCN)NC(=O)[C@H](CCC(=O)O)NC(=O)[C@H](CCCNC(=N)N)NC(=O)CNC(=O)[C@H](CCC(=O)O)NC(=O)[C@H](CC(C)C)NC(C)=O)C(C)C)C(=O)NC(C)(C)C(=O)NC(C)(C)C(=O)N[C@@H](CCC(=O)O)C(=O)NCC(=O)N[C@@H](CCSC)C(=O)N[C@@H](CO)C(=O)N[C@@](C)(CO)C(=O)N[C@@H](Cc1c[nH]c2ccccc12)C(=O)N[C@@H](CO)C(=O)N[C@@H](CCCCN)C(=O)N[C@@H](CCCNC(=N)N)C(N)=O` [compound 39] (Ac-LEGREKVRAQI[Aib][Aib]EGMS[αMeS]WSKR-NH2), for which the Emax turned out to be 99%.

Turning to `CCCC[C@H](NC(=O)CNC(=O)[C@H](CCC(=O)O)NC(=O)C(C)(C)NC(=O)C(C)(C)NC(=O)[C@@H](NC(=O)[C@H](CCC(N)=O)NC(=O)[C@H](C)NC(=O)[C@H](CCCNC(=N)N)NC(=O)[C@@H](NC(=O)[C@H](CCCCN)NC(=O)[C@H](CCC(=O)O)NC(=O)[C@H](CCCNC(=N)N)NC(=O)CNC(=O)[C@H](CCC(=O)O)NC(=O)[C@H](CC(C)C)NC(C)=O)C(C)C)[C@@H](C)CC)C(=O)N[C@@H](CO)C(=O)N[C@@H](CCCCN)C(=O)N[C@@H](Cc1cccc2ccccc12)C(=O)N[C@@H](CO)C(=O)N[C@@H](CCCCN)C(=O)N[C@@H](CCCNC(=N)N)C(N)=O` [compound 36] (Ac-LEGREKVRAQI[Aib][Aib]EG[Nle]SK[1Nal]SKR-NH2), the maximum response (Emax) was 103%.

Staying with this experiment, now noted: cAMP assay in OVCAR 5 cells EC50 (nM), OVCAR5 cells expressing endogenous RXFP1; cAMP by HTRF; 30 min at 37° C.; 1 mM IBMX.
A word on the EC50: it is the midpoint of the concentration-response curve. Higher therefore signals a need for much substance. Take `CC[C@H](C)[C@H](NC(=O)[C@H](CCC(N)=O)NC(=O)[C@H](C)NC(=O)[C@H](CCCNC(=N)N)NC(=O)[C@@H](NC(=O)[C@H](CCCCN)NC(=O)[C@H](CCC(=O)O)NC(=O)[C@H](CCCNC(=N)N)NC(=O)CNC(=O)[C@H](CCC(=O)O)NC(=O)[C@H](CC(C)C)NC(C)=O)C(C)C)C(=O)NC(C)(C)C(=O)NC(C)(C)C(=O)N[C@@H](CCC(=O)O)C(=O)NCC(=O)N[C@@H](CCSC)C(=O)N[C@@H](CO)C(=O)N[C@@](C)(CO)C(=O)N[C@@H](Cc1c[nH]c2ccccc12)C(=O)N[C@@H](CO)C(=O)N[C@@H](CCCCN)C(=O)N[C@@H](CCCNC(=N)N)C(N)=O` [compound 39] (Ac-LEGREKVRAQI[Aib][Aib]EGMS[αMeS]WSKR-NH2): the concentration giving a half-maximal response (EC50) is 9.5 nM.
